Laboratory results reported in BindingDB's records for doi:10.1021/jm00121a001 (University of Utah, 1989).

Assay: Inhibition of compound against Guanine-7-methyl transferase

Nc1nc(O)c2cc(CSC[C@H]3O[C@@H](n4cnc5c(N)ncnc54)[C@H](O)[C@@H]3O)[nH]c2n1
Ki: 93 µM
